These results are taken from US10660877B2 (BRISTOL-MYERS SQUIBB COMPANY, priority 2016, dated 2020).

One assay has as its target human TLR8 (Homo sapiens (Human), UniProt Q9NR97). As to the kind of experiment: TLR8 inhibition reporter assay (HEK-Blue cells, SEAP reporter, R848 stimulation).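 Note: compounds tested from 0.05 nM to 50 µM, 22 h at 37 °C, SEAP measured with HEK-Blue Detection, inhibition relative to agonist plus DMSO versus a known inhibitor.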 A general note: Reporter assays use an easily measured gene product as a stand-in for the process of interest.
The target in another assay is human TLR7 (Homo sapiens (Human), UniProt Q9NYK1). As to the kind of experiment: TLR7 inhibition reporter assay (HEK-Blue cells, SEAP reporter, gardiquimod stimulation). The class given is cell-based. The note with it: HEK-Blue cells overexpressing human TLR7, gardiquimod 7.5 μM.
Sequence of human TLR7 (Q9NYK1 27-1049): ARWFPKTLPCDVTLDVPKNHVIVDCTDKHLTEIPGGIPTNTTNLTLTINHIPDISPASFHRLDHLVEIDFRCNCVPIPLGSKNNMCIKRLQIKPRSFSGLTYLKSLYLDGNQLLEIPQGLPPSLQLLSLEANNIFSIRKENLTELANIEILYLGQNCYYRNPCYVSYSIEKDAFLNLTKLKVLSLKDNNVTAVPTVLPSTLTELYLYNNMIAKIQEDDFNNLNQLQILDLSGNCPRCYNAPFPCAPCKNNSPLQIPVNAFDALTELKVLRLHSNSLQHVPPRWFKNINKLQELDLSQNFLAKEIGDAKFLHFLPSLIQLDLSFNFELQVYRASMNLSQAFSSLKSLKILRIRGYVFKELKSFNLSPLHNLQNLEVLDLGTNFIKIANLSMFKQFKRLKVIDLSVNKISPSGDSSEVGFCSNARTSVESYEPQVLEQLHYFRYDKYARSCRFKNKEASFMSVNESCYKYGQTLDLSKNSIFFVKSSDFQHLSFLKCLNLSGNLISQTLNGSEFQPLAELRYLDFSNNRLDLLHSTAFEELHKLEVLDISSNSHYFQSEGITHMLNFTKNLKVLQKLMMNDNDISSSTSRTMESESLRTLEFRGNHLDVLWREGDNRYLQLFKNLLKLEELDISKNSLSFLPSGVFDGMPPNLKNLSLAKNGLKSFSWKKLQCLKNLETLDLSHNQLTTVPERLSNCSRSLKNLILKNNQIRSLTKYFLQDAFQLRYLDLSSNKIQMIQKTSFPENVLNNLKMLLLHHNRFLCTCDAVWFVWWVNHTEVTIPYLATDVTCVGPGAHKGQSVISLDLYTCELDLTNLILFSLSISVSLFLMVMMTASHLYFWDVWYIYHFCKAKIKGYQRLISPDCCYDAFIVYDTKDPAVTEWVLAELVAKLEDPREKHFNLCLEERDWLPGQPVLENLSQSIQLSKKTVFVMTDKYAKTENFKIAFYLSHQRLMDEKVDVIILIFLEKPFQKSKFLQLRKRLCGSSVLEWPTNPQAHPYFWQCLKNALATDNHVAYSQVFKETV
The target in the next assay is human TLR9 (Homo sapiens (Human), UniProt Q9NR96). As to the kind of experiment: TLR9 inhibition reporter assay (HEK-Blue cells, SEAP reporter, ODN2006 stimulation).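 Note: compounds tested over 0.05 nM to 50 µM, 22 h incubation, inhibition taken as SEAP signal drop from agonist plus DMSO wells toward a known inhibitor control.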
Sequence of human TLR9 (Q9NR96 26-1032): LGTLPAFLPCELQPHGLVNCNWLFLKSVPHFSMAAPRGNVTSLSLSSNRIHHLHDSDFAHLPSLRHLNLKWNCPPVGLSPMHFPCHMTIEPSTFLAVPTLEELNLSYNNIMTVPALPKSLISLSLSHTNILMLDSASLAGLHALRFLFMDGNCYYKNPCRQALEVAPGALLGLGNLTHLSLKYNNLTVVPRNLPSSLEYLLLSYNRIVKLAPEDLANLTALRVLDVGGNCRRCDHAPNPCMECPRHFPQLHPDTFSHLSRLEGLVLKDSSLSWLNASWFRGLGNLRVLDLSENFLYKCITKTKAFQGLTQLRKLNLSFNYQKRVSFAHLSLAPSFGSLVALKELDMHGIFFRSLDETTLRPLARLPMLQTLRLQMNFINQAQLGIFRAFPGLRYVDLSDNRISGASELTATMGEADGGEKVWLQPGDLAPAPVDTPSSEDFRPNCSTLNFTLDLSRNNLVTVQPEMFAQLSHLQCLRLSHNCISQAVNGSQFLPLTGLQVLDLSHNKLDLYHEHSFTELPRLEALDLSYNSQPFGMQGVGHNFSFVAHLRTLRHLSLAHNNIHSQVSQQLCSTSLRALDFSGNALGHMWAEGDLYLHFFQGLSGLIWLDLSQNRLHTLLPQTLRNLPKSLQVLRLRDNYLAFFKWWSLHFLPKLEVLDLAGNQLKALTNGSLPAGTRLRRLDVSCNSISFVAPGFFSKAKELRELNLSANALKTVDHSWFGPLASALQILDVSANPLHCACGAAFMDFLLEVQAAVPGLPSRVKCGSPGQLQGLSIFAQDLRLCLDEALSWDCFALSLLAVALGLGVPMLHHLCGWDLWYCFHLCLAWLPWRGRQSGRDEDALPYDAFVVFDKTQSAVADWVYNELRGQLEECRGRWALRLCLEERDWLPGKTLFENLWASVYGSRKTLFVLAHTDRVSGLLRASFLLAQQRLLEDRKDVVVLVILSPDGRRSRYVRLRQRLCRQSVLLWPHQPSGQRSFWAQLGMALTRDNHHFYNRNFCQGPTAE
The mark [1] stands for this setting: read-out: TLR8 IC50, HEK-Blue cells overexpressing human TLR8, R848 15.9 μM.
The mark [2] stands for this setting: read-out: TLR9 IC50, HEK-Blue cells overexpressing human TLR9, ODN2006 5 nM.

SMILES strings stand for the structures. Read-outs that look alike come from different tables or passages of the source. Where only a bound is given, the exact number is not on record here.

Sequence of human TLR8 (Q9NR97 27-1041): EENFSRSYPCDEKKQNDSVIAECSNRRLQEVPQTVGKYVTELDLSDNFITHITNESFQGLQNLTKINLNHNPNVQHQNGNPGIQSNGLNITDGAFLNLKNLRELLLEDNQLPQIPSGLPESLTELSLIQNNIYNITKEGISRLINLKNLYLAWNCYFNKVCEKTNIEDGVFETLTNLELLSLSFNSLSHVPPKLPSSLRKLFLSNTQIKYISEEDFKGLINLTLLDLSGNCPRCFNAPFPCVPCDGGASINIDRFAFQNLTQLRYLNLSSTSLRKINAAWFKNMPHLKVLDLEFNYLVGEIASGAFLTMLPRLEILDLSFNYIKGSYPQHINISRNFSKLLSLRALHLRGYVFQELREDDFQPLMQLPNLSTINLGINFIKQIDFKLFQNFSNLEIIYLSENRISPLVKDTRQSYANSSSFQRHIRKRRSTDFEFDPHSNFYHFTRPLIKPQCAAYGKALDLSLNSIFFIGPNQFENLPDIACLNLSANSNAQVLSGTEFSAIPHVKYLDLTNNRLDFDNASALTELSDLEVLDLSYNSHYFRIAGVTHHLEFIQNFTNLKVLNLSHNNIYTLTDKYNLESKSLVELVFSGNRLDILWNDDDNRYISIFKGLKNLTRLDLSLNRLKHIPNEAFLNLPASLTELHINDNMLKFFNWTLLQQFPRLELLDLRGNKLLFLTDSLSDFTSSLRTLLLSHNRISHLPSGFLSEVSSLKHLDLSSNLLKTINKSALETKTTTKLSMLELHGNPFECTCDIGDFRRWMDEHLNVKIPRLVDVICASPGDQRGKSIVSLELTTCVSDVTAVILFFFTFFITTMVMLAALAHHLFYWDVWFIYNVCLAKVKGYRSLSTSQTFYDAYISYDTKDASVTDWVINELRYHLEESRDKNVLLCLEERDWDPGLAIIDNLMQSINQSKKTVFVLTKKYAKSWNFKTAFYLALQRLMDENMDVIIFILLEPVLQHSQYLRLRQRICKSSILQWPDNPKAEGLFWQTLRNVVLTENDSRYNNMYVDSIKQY

`Cc1cc(-c2[nH]c3ccc(C4CCN(CC5CC5)CC4)cc3c2C2CC2)cc(C)n1` [Example 667, 3-cyclopropyl-5-(1-(cyclopropylmethyl)piperidin-4-yl)-2-(2,6-dimethylpyridin-4-yl)-1H-indole]: the IC50 at human TLR8 (setting [1]) was determined as 0.0321 µM; on human TLR7 it was 0.019 µM; on human TLR9 (setting [2]), 0.086 µM.

Regarding `Cc1cc(-c2[nH]c3ccc(C4CCN(C(=O)CNCC5(C)CC5)CC4)cc3c2C(C)C)cc(C)n1` [Example 365, 1-(4-(2-(2,6-dimethylpyridin-4-yl)-3-isopropyl-1H-indol-5-yl)piperidin-1-yl)-2-(((1-methylcyclopropyl)methyl)amino)ethan-1-one], the IC50 was determined as 0.0229 µM on human TLR8 (TLR8 IC50, HEK-Blue cells overexpressing human TLR8, R848 15.9 μM); 0.0065 µM against human TLR7; 0.854 µM against human TLR9 (TLR9 IC50, HEK-Blue cells overexpressing human TLR9, ODN2006 5 nM).

In the case of `CCCCN(CCO)C(=O)CN1CCC(c2ccc3[nH]c(-c4cc(C)nc(C)c4)c(C(C)C)c3c2)CC1` [Example 298, N-butyl-2-(4-(2-(2,6-dimethylpyridin-4-yl)-3-isopropyl-1H-indol-5-yl)piperidin-1-yl)-N-(2-hydroxyethyl)acetamide], the values for the IC50 on human TLR8 (setting [1]), at human TLR7 and at human TLR9 (setting [2]) were 0.1 µM, 0.0256 µM and 2.67 µM, respectively.

With `Cc1cc(-c2[nH]c3ccc(C4CC(C)(C)N(C)C(C)(C)C4)cc3c2C(C)C)cc(C)n1` [Example 496, 2-(2,6-dimethylpyridin-4-yl)-3-isopropyl-5-(1,2,2,6,6-pentamethylpiperidin-4-yl)-1H-indole], the IC50 on human TLR8 (setting [1]) is 9.59 µM; on human TLR7, 7.19 µM; at human TLR9 (setting [2]), over 50 µM.

For the compound `Cc1cc(-c2[nH]c3ccc(C4CCN(CC(=O)N(C)C)CC4)cc3c2C(C)C)cc(C2CC2)n1` [Example 505, 2-(4-(2-(2-cyclopropyl-6-methylpyridin-4-yl)-3-isopropyl-1H-indol-5-yl)piperidin-1-yl)-N,N-dimethylacetamide], the figures for the IC50 on human TLR8 (setting [1]), against human TLR7 and on human TLR9 (setting [2]) were 0.0271 µM, 0.0059 µM and 0.71 µM, respectively.

For `Cc1cc(-c2[nH]c3ccc(C4CCNCC4)c(F)c3c2C(C)C)ccn1` [Example 76, 4-fluoro-3-isopropyl-2-(2-methylpyridin-4-yl)-5-(piperidin-4-yl)-1H-indole], the IC50 at human TLR8 (setting [1]) is 0.0027 µM; against human TLR7 it was 0.0014 µM; on human TLR9 (setting [2]) it was 0.44 µM.

As to `Cc1cc(-c2[nH]c3ccc(C4CCN(S(=O)(=O)Cc5ccccc5)CC4)cc3c2C(C)C)ccn1` [Example 556, 5-(1-(benzylsulfonyl)piperidin-4-yl)-3-isopropyl-2-(2-methylpyridin-4-yl)-1H-indole], the IC50 at human TLR8 (setting [1]) is 0.731 µM; against human TLR7 it was 0.22 µM; at human TLR9 (setting [2]), over 50 µM.

Turning to `CCc1c(-c2ccncc2)[nH]c2ccc(C3CCN(C4CCN(C(C)C)CC4)CC3)cc12` [Example 804, 3-ethyl-5-(1′-isopropyl-[1,4′-bipiperidin]-4-yl)-2-(pyridin-4-yl)-1H-indole], the IC50 on human TLR8 (setting [1]) stood at 0.0112 µM; against human TLR7, 0.212 µM; on human TLR9 (setting [2]) it was 0.082 µM.

`CC(C)c1c(-c2ccnc(C(=O)NCC(F)(F)F)c2)[nH]c2ccc(C3CCNCC3)cc12` [Example 476, 4-(3-isopropyl-5-(piperidin-4-yl)-1H-indol-2-yl)-N-(2,2,2-trifluoroethyl) picolinamide]: the IC50 on human TLR8 (setting [1]) is 1.04 µM; against human TLR7, 6.07 µM; on human TLR9 (setting [2]) it was 3.26 µM.

As to `Cc1cc(-c2[nH]c3ccc(C4CCN(CC(=O)NC5CC5)CC4)cc3c2C(C)C)cc(C)n1` [Example 212, N-cyclopropyl-2-(4-(2-(2,6-dimethylpyridin-4-yl)-3-isopropyl-1H-indol-5-yl)piperidin-1-yl)acetamide], the IC50 is 0.0065 µM at human TLR8 (setting [1]), 0.0031 µM on human TLR7 and 0.648 µM on human TLR9 (setting [2]).

A word on the IC50: it is the concentration that gives 50% inhibition.
